We go through 3 molecules from patent US5024839A, “Dactylocycline A and dactylocycline B” (E. R. Squibb & Sons, Inc., priority 1987, dated 1991).

Holding throughout (type): cell-based
Experiment [1] concerns Staphylococcus aureus SGB 45. In words: MIC (agar dilution, K-10 agar). Here is the method: (§1) The following methodology was used to determine the minimum inhibitory concentration (hereinafter referred to as MIC) of the compounds of this invention. The test organisms were grown in 20 ml of Antibiotic Assay Broth (Difco) by inoculating the broth (in tubes) with a loopful of the organism from a BHI (Difco) agar slant. The inoculated tubes were incubated at 37° C. for 18 to 24 hours. These cultures are assumed to contain 10^9 colony forming units (CFU) per ml. The cultures were diluted 1:100 to give a final inoculum level of 10^7 CFU; dilutions were made with Yeast Beef Broth (Difco). The test compounds were dissolved in an appropriate diluent at a concentration of 1,000 μg/ml. Two-fold dilutions were made in Yeast Beef Broth (Difco) resulting in a range from 1000 μg/ml to 0.5 μg/ml. A 1.5 ml portion of each dilution was placed into individual petri dishes to which 13.5 ml of K-10 agar was added. The composition of K-10 agar is:
(§2) The final drug concentration in the agar ranged from 100 μg/ml to 0.05 μg/ml. Organism growth control plates containing agar only were prepared and inoculated before and after the test plates. The organisms were applied to agar surface of each plate with a Denly Multipoint Inoculator, which delivers approximately 10^4 CFU on the agar surface.
(§3) The plates were incubated at 37° C. for 18 hours and the MICs determined. The MIC is the lowest concentration of compound inhibiting growth of the organism.
(§4) The test organisms chosen for this study are pairs of tetracycline-sensitive and tetracycline-resistant strains.

The test system of experiment [2] is Streptococcus faecalis SC9011. Description: MIC (agar dilution, K-10 agar). The procedure:
as §1, §2, §3, §4
(In general: In agar dilution the substance is mixed into plates at graded concentrations.)

The subject of experiment [3] is Staphylococcus aureus SC2399. Description: MIC (agar dilution, K-10 agar). Here is the method:
as §1, §2, §3, §4

In experiment [4] the test system is Staphylococcus aureus SC10016. Description: MIC (agar dilution, K-10 agar). The procedure:
as §1, §2, §3, §4

The subject of experiment [5] is Staphylococcus aureus SGB 42. Description: MIC (agar dilution, K-10 agar). Here is the method: as §1, §2, §3, §4
Experiment [6] deals with Staphylococcus epidermidis SC9052. In words: MIC (agar dilution, K-10 agar). The procedure:
as §1, §2, §3, §4

The subject of experiment [7] is Staphylococcus epidermidis SC9087. In words: MIC (agar dilution, K-10 agar). The procedure: as §1, §2, §3, §4
The test system of experiment [8] is Streptococcus faecalis SC9776. In words: MIC (agar dilution, K-10 agar). The procedure: as §1, §2, §3, §4
Experiment [9] relates to gram-positive bacteria, including tetracycline-resistant bacteria. In words: Activity against gram-positive bacteria. The procedure: as §1, §2
The plates were incubated at 37° C. for 18 hours and the MICs determined. […]

[10] abbreviates: Staphylococcus aureus SGB 45, K-10 agar, approximately 10^4 CFU, 37° C., 18 hours.
Where [11] appears, read: Streptococcus faecalis SC9011, K-10 agar, approximately 10^4 CFU, 37° C., 18 hours.
[12] abbreviates: Staphylococcus aureus SC2399, K-10 agar, approximately 10^4 CFU, 37° C., 18 hours.
The mark [13] stands for this setting: Staphylococcus aureus SC10016, K-10 agar, approximately 10^4 CFU, 37° C., 18 hours.
Setting [14] is: Staphylococcus aureus SGB 42, K-10 agar, approximately 10^4 CFU, 37° C., 18 hours.
Setting [15] is: Staphylococcus epidermidis SC9052, K-10 agar, approximately 10^4 CFU, 37° C., 18 hours.
[16] abbreviates: Staphylococcus epidermidis SC9087, K-10 agar, approximately 10^4 CFU, 37° C., 18 hours.
Where [17] appears, read: Streptococcus faecalis SC9776, K-10 agar, approximately 10^4 CFU, 37° C., 18 hours.

Molecules are shown by their SMILES. In brackets after ≈: the same amount, converted by molar mass.

As to `CN(C)[C@@H]1C(O)=C(C(N)=O)C(=O)[C@@]2(O)C(O)=C3C(=O)c4c(O)cccc4[C@@](C)(O)[C@H]3C[C@@H]12` [Tetracycline, reference compound], the MIC in experiment [1] (Staphylococcus aureus, SGB45, 18 h) amounted to 100 µg/mL (≈ 225 µM); in [2] (Enterococcus faecalis, SC9011, 18 h), 1.6 µg/mL (≈ 3.6 µM); in [3] (Staphylococcus aureus, SC2399, 18 h), 0.4 µg/mL (≈ 0.9 µM); in [4] (Staphylococcus aureus, SC10016, 18 h) it was 100 µg/mL (≈ 225 µM); in experiment [5] (Staphylococcus aureus, SGB42, 18 h) it was 0.2 µg/mL (≈ 0.45 µM); in experiment [6] (Staphylococcus epidermidis, SC9052, 18 h), 0.8 µg/mL (≈ 1.8 µM). For the same molecule, the minimum inhibitory concentration (MIC) in experiment [7] (Staphylococcus epidermidis, SC9087, 18 h) was 50 µg/mL (≈ 113 µM); in [8] (Enterococcus faecalis, SC9776, 18 h), above 100 µg/mL.
Turning to `COc1cc(O)c2c(c1Cl)[C@](C)(O[C@H]1C[C@](C)(NO)[C@@H](OC)[C@H](C)O1)[C@H]1C[C@@]3(O)[C@H](N(C)C)C(=O)C(C(N)=O)=C(O)[C@@]3(O)C(=O)C1=C2O` [Dactylocycline A], the MIC in [1] (setting [10]) turned out to be 3.1 µg/mL (≈ 4.44 µM); in [2] (setting [11]), 25 µg/mL (≈ 35.8 µM); in experiment [3] (setting [12]) it was 1.6 µg/mL (≈ 2.29 µM); in experiment [4] (setting [13]), 6.3 µg/mL (≈ 9.02 µM); in [5] (setting [14]) it was 1.6 µg/mL (≈ 2.29 µM); in [6] (setting [15]) it was 6.3 µg/mL (≈ 9.02 µM). In addition, the MIC in [7] (setting [16]) came to 3.1 µg/mL (≈ 4.44 µM); in [8] (setting [17]) it was 25 µg/mL (≈ 35.8 µM). The “activity against gram-positive bacteria” value in [9] is “active against gram-positive bacteria, including tetracycline-resistant bacteria”.
As for `COc1cc(O)c2c(c1Cl)C(C)(OC1CC(C)([N+](=O)[O-])C(OC)C(C)O1)C1CC3(O)C(N(C)C)C(=O)C(C(N)=O)=C(O)C3(O)C(=O)C1=C2O` (centres unmarked) [Dactylocycline B], the MIC in experiment [1] (setting [10]) amounted to 3.1 µg/mL (≈ 4.35 µM); in experiment [2] (setting [11]), 6.3 µg/mL (≈ 8.85 µM); in experiment [3] (setting [12]), 6.3 µg/mL (≈ 8.85 µM); in [4] (setting [13]) it was 3.1 µg/mL (≈ 4.35 µM); in experiment [5] (setting [14]), 3.1 µg/mL (≈ 4.35 µM); in experiment [6] (setting [15]), 3.1 µg/mL (≈ 4.35 µM). Also, the MIC in experiment [7] (setting [16]) was determined as 3.1 µg/mL (≈ 4.35 µM); in experiment [8] (setting [17]), 6.3 µg/mL (≈ 8.85 µM). The “activity against gram-positive bacteria” value in experiment [9] is “active against gram-positive bacteria, including tetracycline-resistant bacteria”.

As usually defined, the MIC is the lowest concentration that inhibits growth of the organism. Read a low MIC as greater potency.
